Reference: US20150182456A1, “HYDROGEL VACCINE FORMULATIONS” (Sigmoid Pharma Limited, priority 2012, published 2015)

Tested on: Female C57/bl6 Mice
Test: V. Cholerae Experiment 1: immune response in fecal pellets
Type: in vivo
Conditions: oral, 2.5×10^8 bacteria, 10 μg αGalCer, 3 rounds, ELISA

CCCCCCCCCCCCCCCCCCCCCCCCCC(=O)N[C@@H](CO[C@H]1O[C@H](CO)[C@H](O)[C@H](O)[C@H]1O)[C@H](O)[C@H](O)CCCCCCCCCCCCCC [αGalCer, α-galactosylceramide]
anti Inaba-LPS IgA and IgG titres in fecal pellets: effective adjuvant
